Assay results as given in patent US20210186834A1, “TAHITI VANILLA EXTRACT AND 4-[(1E,3S)-3-ETHENYL-3,7-DIMETHYLOCTA-1,6-DIENYL]PHENOL FOR COMBATTING CUTANEOUS AGEING” (PIERRE FABRE DERMO-COSMETIQUE, priority 2018, published 2021).

Tests used:
Type in all cases: cell-based
protein P16 = test: Expression of P16 by immunofluorescence after acute UVA stress on normal human fibroblasts; conditions: bakuchiol 0.5 μg/mL, added 1 h before UVA 60 J/cm^2, sampled 24 h after irradiation, N=3 donors; P=NS versus the non-treated group
Procedure: The biological model used for this study consists of normal human dermis fibroblasts obtained from healthy donors. The fibroblasts are cultured in a standard culture medium for 36 hours, the products to test (vehicle (DMSO), bakuchiol (0.5 μg/ml), vanilla extract (0.05%, p/v) and the combination thereof (same concentrations)) are added to the culture medium one hour before the UVA radiation test. This test consists in a photo-ageing stress: the fibroblasts are irradiated by UVA at a dose of 60 J/cm^2 (Waldmann UVA lamp). A condition without irradiation is also realised. The fibroblasts are next sampled 24 h after irradiation for immunofluorescence analyses. All the experimental conditions are realised with N=3 donors. The fluorescence was quantified using Nikon NIS Element software in order to obtain an average fluorescence per cell and per condition. The treatment of human fibroblasts with acute UVA stress induces a significant increase in the expression of P16, going from 500 AU to almost 1000 AU, P<0.001, versus the non-stimulated condition. […] The statistics are produced using a one way variance analysis (one-way ANOVA) followed by a Dunnett test.

IL8 = test: Expression of IL8 by immunofluorescence after acute UVA stress on normal human fibroblasts; conditions: bakuchiol 0.5 μg/ml, UVA 60 J/cm^2, 24 h after irradiation; P<0.05 versus non-treated conditions
Procedure: (§1) The fibroblasts are cultured in a standard culture medium for 36 hours, the products to test (vehicle (DMSO), bakuchiol (0.5 μg/ml), vanilla extract (0.05%, p/v) and the combination thereof (same concentrations)) are added to the culture medium one hour before the UVA radiation test. This test consists in a photo-ageing stress: the fibroblasts are irradiated by UVA at a dose of 60 J/cm^2 (Waldmann UVA lamp). A condition without irradiation is also realised. The fibroblasts are next sampled 24 h after irradiation for immunofluorescence analyses. All the experimental conditions are realised with N=3 donors. The fluorescence was quantified using Nikon NIS Element software in order to obtain an average fluorescence per cell and per condition. The protocol used is rigorously the same as that described in example 1. The products tested are the same, the concentrations also. The expression of IL8 is then quantified by immunofluorescence. The treatment of human fibroblasts with acute UVA stress induces a significant increase in the expression of IL8, going from 100% to 5300% (P<0.05) compared to the condition without irradiation. In addition, it appears that the treatment by UVA induces important morphological changes in the fibroblasts, going from a star-shaped model to a spindle-shaped model.

normal human fibroblasts = test: Morphological changes of fibroblasts induced by exposure to UVA; conditions: bakuchiol 0.5 μg/ml, vanilla extract 0.05% (p/v), combination at the same concentrations; UVA 60 J/cm^2
Procedure: as §1

SMILES: C=C[C@@](C)(/C=C/c1ccc(O)cc1)CCC=C(C)C [bakuchiol, 4-[(1E,3S)-3-ethenyl-3,7-dimethylocta-1,6-dienyl]phenol]
- reduction of the expression of P16 following irradiation (protein P16): −44.4%
- decrease of the expression of IL8 following exposure to UVA (IL8): 88.3%
- effect on morphological changes (star-shaped to spindle-shaped) induced by exposure to UVA (normal human fibroblasts): prevention of the morphological changes
